Experimental data from publication PMC9155639 (Journal of Antimicrobial Chemotherapy, 2022).

What was measured:
[1] = molecular target: T1, BpMip (Burkholderia pseudomallei, UniProt Q63J95); experiment: biochemical
[2] = test system: B. pseudomallei K96243
[3] = molecular target: T1, BpMip; experiment: biochemical; type: binding, B. pseudomallei

T1 sequence (Q63J95 whole entry, added parts left off): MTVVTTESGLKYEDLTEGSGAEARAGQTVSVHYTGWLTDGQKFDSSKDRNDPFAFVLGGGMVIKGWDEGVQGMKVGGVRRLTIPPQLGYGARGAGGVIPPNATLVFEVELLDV

COc1cc(NC(=O)CCNC(=O)[C@@H]2CCCCN2S(=O)(=O)Cc2ccccc2)cc(OC)c1OC [SF339, (S)-1-(benzylsulfonyl)-N-(3-oxo-3-((3,4,5-trimethoxyphenyl)amino)propyl)piperidine-2-carboxamide]
IC50 [1]: 260 nM
Ki ([1]; Ki (μM) Mean): 0.45 µM
effect on B. pseudomallei-induced cytotoxicity [2]: no statistically significant difference
Kd [3]: 10900 ± 200 nM
